For eight molecules, Ki and Animals results are on record in ChEMBL document CHEMBL1125447, “Phenylmorphans and analogues: opioid receptor subtype selectivity and effect of conformation on activity” (J Med Chem, 1992).

By Ki is commonly meant a dissociation constant, usually derived from enzyme kinetics or from competition with a known ligand. Read a high Ki as weaker binding.

Test [1] has as its target T1, Mu-type opioid receptor (Bos taurus, UniProt P79350). The test is described as follows: Binding affinity towards opioid receptor mu 1.
Test [2] deals with Kappa-type opioid receptor (Cavia porcellus, UniProt P41144). Briefly: Binding affinity towards opioid receptor kappa 1.
For test [3], the target named is T1, Mu-type opioid receptor. Briefly: Binding affinity towards opioid receptor mu 2.
For test [4], the system named is Mus musculus. The test is described as follows: Antinociceptive activity displayed after pretreatment with selective opioid antagonist beta-FNA([…], sc). It is filed as functional.

T1 sequence (P79350 whole entry): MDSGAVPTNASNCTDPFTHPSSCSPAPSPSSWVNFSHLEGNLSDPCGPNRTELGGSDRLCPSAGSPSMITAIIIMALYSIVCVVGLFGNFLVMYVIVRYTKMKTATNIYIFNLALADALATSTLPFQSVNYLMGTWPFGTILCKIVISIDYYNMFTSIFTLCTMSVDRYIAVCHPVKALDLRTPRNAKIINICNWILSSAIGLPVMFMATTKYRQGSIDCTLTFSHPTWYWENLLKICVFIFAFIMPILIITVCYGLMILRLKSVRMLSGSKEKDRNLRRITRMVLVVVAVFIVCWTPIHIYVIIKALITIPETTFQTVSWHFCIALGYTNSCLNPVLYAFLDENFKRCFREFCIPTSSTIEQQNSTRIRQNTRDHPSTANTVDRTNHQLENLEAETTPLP
Kappa-type opioid receptor, sequence (P41144 whole entry): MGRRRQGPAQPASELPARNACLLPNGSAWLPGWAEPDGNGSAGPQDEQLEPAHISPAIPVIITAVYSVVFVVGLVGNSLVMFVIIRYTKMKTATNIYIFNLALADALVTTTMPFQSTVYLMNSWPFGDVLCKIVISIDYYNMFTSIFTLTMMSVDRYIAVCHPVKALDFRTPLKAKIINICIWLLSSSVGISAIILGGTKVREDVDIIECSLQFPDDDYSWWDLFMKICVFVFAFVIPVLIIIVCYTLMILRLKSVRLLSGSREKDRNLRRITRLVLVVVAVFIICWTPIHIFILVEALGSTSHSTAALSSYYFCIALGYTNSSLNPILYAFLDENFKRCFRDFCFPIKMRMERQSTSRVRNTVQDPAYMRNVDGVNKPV

On to `CN1CCC2(c3cccc(O)c3)CCCC1[C@H]2O` (mixture of isomers), for which the Ki in test [1] came out at 8.8 nM; in test [2], 110 nM; in test [3], 28 nM.
Turning to `CC1(C)SSC(C)(C)[C@@H](NC(=O)[C@@H](N)Cc2ccc(O)cc2)C(=O)NCC(=O)N[C@@H](Cc2ccccc2)C(=O)N[C@H]1C(=O)O`, the inhibition constant (Ki) in test [1] worked out at 82 nM; in test [3] it was 460 nM.
Turning to `C[C@@H]1C2CCCC1(c1cccc(O)c1)CCN2C` (single isomer, unassigned; (+)), the values for the Ki in test [1], in test [2] and in test [3] were 140 nM, 89 nM and over 600 nM, respectively.
As for `CN1CCC2(c3cccc(O)c3)CCCC1C2` (single isomer, unassigned; (-)), the Ki in test [1] was 13 nM; in test [2], 200 nM; in test [3], 63 nM.
For `C[C@@H]1C2CCCC1(c1cccc(O)c1)CCN2C` (single isomer, unassigned; (-)), in that order: 18 nM, 49 nM and 50 nM.
Regarding `CN1CCC2(c3cccc(O)c3)CCCC1C2` (single isomer, unassigned; (+)), the Animals in test [4] is listed as 0%. In addition, the Ki in test [1] came out at 3.4 nM; in test [2], 98 nM; in test [3] it was 19 nM.
On to `CN1CCC2(c3cccc(O)c3)CCCC1[C@@H]2O` (mixture of isomers), for which the figures for the Ki in test [1], in test [2] and in test [3] were 75 nM, over 500 nM and over 275 nM, respectively.
In the case of `C[C@@H]1C2CCCC1(c1cccc(O)c1)CCN2C` (mixture of isomers), the Ki amounted to 46 nM in test [1], 70 nM in test [2] and 190 nM in test [3].
